Data on one molecule can be found in patent US20090257999A1, “Method of preventing contrast-induced nephropathy” (Inotek Pharmaceuticals Corporation, priority 2007, published 2009).

What all share (type): in vivo, rat
In assay [1] the test system is Neutrophil gelatinase-associated lipocalin (NGAL). Kind of assay: Plasma NGAL by ELISA, Example 1. The note with it: diabetic rats + i.v. Iomeprol; Metalloporphyrin A 1 mg/kg or NAC 10 mg/kg; versus drug placebo; readings 0-96 hours. Here is the method:
(§1) Experimental model for assessing the effects of Metalloporphyrin A on CIN: Diabetic (n=8) for group #'s 1-9 or wild-type rats (n=10) for group #'s 10 and 11 were treated with drug 60 min prior to contrast agent administration. At the “0” time point, Iomeprol was administered with ensuing drug intervention dosing every 12 hours for Metalloporphyrin A from 24-84 hours or every 24 hours for NAC from 24-72 hours. At the 96 hour time point, kidneys were harvested for histopathology, MPO and MDA measurements. From 0-96 hours, plasma samples from all animals per group were screened for urea, creatinine, fractional excretion of Na^+ and NGAL.
Neutrophil gelatinase-associated lipocalin (NGAL) has recently been proposed as a real-time indicator of active kidney damage by Mori, K., Nakao, K., Kidney International (2007) 71, 967-970. The plasma from 5 different diabetic animals per experimental group were taken for measurement of NGAL by ELISA as outlined below:
1) For diabetic rats without contrast agent, non-diluted plasma was used. For diabetic rats with contrast agent, plasma samples were diluted 1:400 with saline prior to use.
100 microliter diluted/non-diluted plasma samples or recombinant NGAL protein (25-1000 ng/ml) were added to pre-coated ELISA plates containing a monoclonal antibody raised against NGAL. […]
5) Plates were read at an absorbance of 450 nm.

The subject of assay [2] is diabetic rats. Kind of assay: CIN model, Example 5: INO-1001 alone and with NAC in diabetic rats. The conditions noted are these: diabetic rats + Iomeprol, NAC 30 mg/kg i.v., INO-1001 10 mg/kg ip, or both, at −30 min. Here is the method: Male Wistar rats (150-200 g; Harlan Nossanr) were housed in a controlled environment and provided with standard rodent chow and water. Diabetes was induced after 12 h of fasting. The animals received a single 60 mg/kg intravenous (i.v.) injection of streptozotocin (Sigma, St. Louis, Mo.) in 10 mM sodium citrate buffer, pH 4.5 (see figure). Control non-diabetic animals were fasted and received citrate buffer alone. After 24 hours, animals with blood glucose levels greater than 250 mg/dl were considered diabetic. The diabetic state was confirmed by evaluating the blood glucose levels. Ten days following the induction of diabetes rats were anesthetized with 90 mg/kg ketamine i.m. and 10 mg/kg xylazine i.m. and were treated with the contrast agent iomeprol (10 mL/kg injected via the lateral tail vein) or with 0.9% normal saline. The contrast agent used was the low osmolar non-ionic monomer iomeprol (Iomeron, 400 mgI mL-1; Bracco SpA, Milan, Italy) with an osmolality of 726±34 mosmol/kg H2O.
GROUP 1: Diabetic rats only+Placebo (i.v.). GROUP 2: Diabetic rats+Iomeprol+Placebo (i.v.) given at −30 min. GROUP 3: Diabetic rats+Iomeprol+NAC (30 mg/kg, i.v.) given at −30 min. GROUP 4: Diabetic rats+Iomeprol+INO-1001 (10 mg/kg, ip) given at −30 min. GROUP 5: Diabetic rats+Iomeprol+NAC (30 mg/kg, i.v.)+INO-1001 (10 mg/kg, ip) given at −30 min.
Blood samples were collected via the lateral tail vein into S1/3 tubes containing serum gel at 24 hours. The samples were centrifuged (6000 r.p.m. for 3 min) to separate plasma. All plasma samples were analyzed for biochemical parameters within 24 hours after collection. Plasma and urine concentrations of creatinine were measured as indicators of impaired glomerular function. Creatinine clearance was calculated using the following formula (=UV/P), where U refers to Creatinine concentration in urine, V to urine volume/min and P to serum creatinine. Plasma and urine concentrations of NGAL (neutrophil gelatinase associated lipocalin) levels and urine αGST (alpha glutathione S-transferase) and NGAL levels were evaluated.
Protein concentration in urine was determined by Bio-Rad DC Protein Assay (BioRad, Richmond Calif.). The Bio-Rad DC protein assay is a colorimetric assay for protein concentration. The reaction is similar to the well-documented Lowry assay (Lowry et al., Protein measurement with the Folin phenol reagent, J Biol Chem 193, 265-275 (1951). The Bio-Rad DC protein assay requires only a single 15-minute incubation, and absorbance is stable for a least 2 hours. The amount of protein is expressed in mg/ml.

In assay [3] the test system is diabetic rats. Kind of assay: CIN model, Example 2: NAC and Metalloporphyrin A in diabetic rats. The note with it: diabetic (STZ) rats + Iomeprol, NAC 3-100 mg/kg i.v., or NAC 10-100 mg/kg + Metalloporphyrin A 1 mg/kg i.v., at −30 min.
Protocol: Male Wistar rats (150-200 g; Harlan Nossanr) were housed in a controlled environment and provided with standard rodent chow and water. Diabetes was induced after 2 hours of fasting. The animals received a single 60 mg/kg intravenous (i.v.) injection of streptozotocin (Sigma, St. Louis, Mo.) in 10 mM sodium citrate buffer, pH 4.5 (see figure). Control non-diabetic animals were fasted and received citrate buffer alone. After 24 hours, animals with blood glucose levels greater than 250 mg/dl were considered diabetic. The diabetic state was confirmed by evaluating the blood glucose levels. Ten days following the induction of diabetes rats were anesthetized with 90 mg/kg ketamine i.m. and 10 mg/kg xylazine i.m. and were treated with the contrast agent iomeprol (10 mL/kg injected via the lateral tail vein) or with 0.9% normal saline. The contrast agent used was the low osmolar non-ionic monomer iomeprol (Iomeron, 400 mgI mL-1; Bracco SpA, Milan, Italy) with an osmolality of 726±34 mosmol/kg H2O.
Blood samples were collected via the lateral tail vein into S1/3 tubes containing serum gel at 0 and 24 hours. The samples were centrifuged (6000 r.p.m. for 3 min) to separate plasma. All plasma samples were analyzed for biochemical parameters within 24 hours after collection. Plasma and urine concentrations of creatinine were measured as indicators of impaired glomerular function. Creatinine clearance was calculated using the following formula (=UV/P), where U refers to Creatinine concentration in urine, V to urine volume/min and P to serum creatinine.
Assay [4] deals with Myeloperoxidase (MPO) activity in kidneys. Kind of assay: Kidney myeloperoxidase (MPO) activity, Example 1. The note with it: at 96 hours. Here is the method: as §1
Myeloperoxidase (MPO) activity in kidneys was used as an indicator of polymorphonuclear (PMN) cell infiltration activation using a method previously described (Hillegass et al, J. Pharmacol. Methods. 24(4):285-95,1990).
At the end of the experiments, kidney tissue was weighed and homogenized in a solution containing 0.5% (wt/vol) hexadecyltrimethylammonium bromide dissolved in 10 mmol/L potassium phosphate buffer (pH 7.4) and centrifuged for 30 minutes at 20,000 g at 4° C. […] The rate of change in absorbance was measured spectrophotometrically at 650 nm. MPO activity was defined as the quantity of enzyme required to degrade 1 mmol of H2O2 at 37° C. and was expressed in U/g wet tissue.

The structures appear in SMILES notation.

Regarding `CC(=O)N[C@@H](CS)C(=O)O` [NAC, N-acetylcysteine], the “plasma NGAL levels” value in assay [1] is listed as “significantly lower”. Moreover, the plasma creatinine entry in the assay with diabetic rats [2] (24 h) is “significant reductions”. Besides, in the assay with diabetic rats [2] (24 hours), the “plasma NGAL concentration” value is “significant reductions”, the “total protein concentration in the urine” value is given as “significant reductions”, the “urine NGAL concentration” value was “significant reductions” and the “urine αGST” value is recorded as “significant reductions”. Also, the plasma creatinine result in the assay with diabetic rats [3] (24 h) is given as “significant reductions”. Further, in the assay on diabetic rats [3] (24 hours), the “total protein concentration in the urine” value is listed as “significant reductions” and the “urine αGST concentration” value is recorded as “significant reduction”. Further, in assay [4] (diabetic rats + i.v. Iomeprol, Metalloporphyrin A 30-1000 μg/kg or NAC 10 mg/kg i.p.), the “kidney MPO activity” value is reported as “significant reductions”. Besides, the “kidney MPO activity” value in assay [4] (diabetic rats + i.v. saline (no contrast agent), Metalloporphyrin A 1000 μg/kg or NAC 10 mg/kg i.p.) is “significantly reduced the increase”.
